Measurements: PubChem BioAssay (NCI)
“And” between values parts separate entries of the source, which are not always exact repeats. Equal entries are not always repeated.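 The compound was tested at five concentrations on cells cultured in 96-well plates, with a 48-hour exposure period. The concentration for 50% growth inhibition is given as GI50. TGI marks complete inhibition of growth.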

Assays:
Test in all cases: NCI tumour cell line growth inhibition, 48 h
KM12 colon = test system: KM12 colon
HCC-2998 colon = test system: HCC-2998 colon
786-0 renal = test system: 786-0 renal
EKVX NSCLC = test system: EKVX NSCLC
U251 CNS = test system: U251 CNS
HCT-116 colon = test system: HCT-116 colon
OVCAR-3 ovarian = test system: OVCAR-3 ovarian
UO-31 renal = test system: UO-31 renal
SK-MEL-2 melanoma = test system: SK-MEL-2 melanoma
CAKI-1 renal = test system: CAKI-1 renal

Structure (SMILES)	GI50 (KM12 colon)	TGI (KM12 colon)	GI50 (HCC-2998 colon)	TGI (HCC-2998 colon)	GI50 (786-0 renal)	TGI (786-0 renal)	GI50 (EKVX NSCLC)	TGI (EKVX NSCLC)	GI50 (U251 CNS)	TGI (U251 CNS)	GI50 (HCT-116 colon)	TGI (HCT-116 colon)	GI50 (OVCAR-3 ovarian)	TGI (OVCAR-3 ovarian)	GI50 (UO-31 renal)	TGI (UO-31 renal)	GI50 (SK-MEL-2 melanoma)	TGI (SK-MEL-2 melanoma)	GI50 (CAKI-1 renal)	TGI (CAKI-1 renal)
CCCCCCCCCc1cc[n+](CC(=O)c2ccc([N+](=O)[O-])cc2)cc1	0.569 µM	1.97 µM	0.514 µM	1.93 µM	1.75 µM	3.25 µM	0.914 µM	2.55 µM	0.457 µM	1.76 µM	0.373 µM	1.43 µM	1.04 µM	2.28 µM	1.48 µM	2.9 µM	0.565 µM	2.06 µM	3.19 µM	12 µM
CS(=O)(=O)CCNCc1ccc(-c2ccc3ncnc(Nc4ccc(OCc5cccc(F)c5)c(C(F)(F)F)c4)c3c2)o1	4.06 µM	7.63 µM	4.4 µM	8.29 µM	4.68 µM	11.1 µM	3.12 µM	9.94 µM	3.98 µM	8.48 µM	3.94 µM	8.16 µM	4.07 µM	8.47 µM	3.36 µM	8.42 µM	4.51 µM	8.96 µM	4.59 µM	13.7 µM
CC(=O)C1C(=O)NC(=O)C1=O (stereo not given)		> 100 µM		> 100 µM		> 100 µM		> 100 µM		> 100 µM		> 100 µM		> 100 µM		> 100 µM		> 100 µM		> 100 µM
CS(=O)(=O)Nc1cccc(-c2cc(-c3ccccc3Cl)c(C#N)c(N)n2)c1	0.443 µM	13.1 µM	1.36 µM	8.52 µM	0.803 µM	14.4 µM	2.38 µM	21.4 µM	0.531 µM	15.4 µM	0.448 µM	11.8 µM	0.298 µM	2.8 µM	0.984 µM	17.4 µM	0.602 µM	15.8 µM	0.502 µM	24.4 µM
O/N=C1/C(=C/c2ccc(Oc3ccccc3)cc2)CCCC1C(NO)c1ccc(Oc2ccccc2)cc1 (stereo not given)		> 100 µM		> 100 µM		> 100 µM		> 100 µM		> 100 µM		24.6 µM		> 100 µM		76.4 µM		> 100 µM		88.6 µM
Cc1cc(O)c(C2=NN(c3ccc(S(N)(=O)=O)cc3)C(c3ccc(N(C)C)cc3)C2)c(C)c1Cl (stereo not given)	13.3 µM	28.3 µM	14.8 µM	30.9 µM	16.8 µM	32.2 µM	13.3 µM	36.1 µM	11.8 µM	26.9 µM	7.6 µM	21.1 µM	17.8 µM	33.3 µM	12.7 µM	29.4 µM	21.4 µM	43.6 µM	23.3 µM	> 100 µM
CCn1cc(-c2ccnc3[nH]ccc23)c(-c2cccc(NC(=O)Nc3ccc(OCc4ccccc4)cc3)c2)n1	7.44 µM	> 25 µM	13.2 µM	> 25 µM	6.82 µM	> 25 µM	21.8 µM	> 25 µM	4.75 µM	> 25 µM	12.1 µM	> 25 µM	6.24 µM	19.6 µM	15 µM	> 25 µM	8.14 µM	> 25 µM	6.71 µM	> 25 µM
Nc1ncnc2c1c(-c1cccc(OCc3ccccc3)c1)cn2C1CC(CN2CCC2)C1 (stereo not given)	2.72 µM and 3.07 µM	8.97 µM and > 10 µM	2.26 µM and 5.4 µM	10.6 µM and > 10 µM	1.92 µM and 2.14 µM	3.98 µM and 4.83 µM	7.88 µM	> 10 µM	1.82 µM and 3 µM	3.94 µM and > 10 µM	1.85 µM and 2.58 µM	11.5 µM and > 10 µM	6.26 µM and 7.96 µM	19.3 µM and > 10 µM	1.31 µM and 1.75 µM	4.34 µM and 9.79 µM	1.58 µM and 2.21 µM	3.36 µM and 6.1 µM	2.56 µM and 2.44 µM	11.4 µM and > 10 µM
COc1cc(O)c2c(c1)C(=O)C=C(Cl)C2=O		> 100 µM		> 100 µM		> 100 µM		> 100 µM		> 100 µM		> 100 µM		> 100 µM		> 100 µM		> 100 µM		> 100 µM
O=C(O)CCC/C=C\C[C@H]1C=CC(=O)/C1=C/C[C@@H](O)CCc1cccc(C(F)(F)F)c1	1.89 µM	4.62 µM	1.87 µM	3.5 µM	2.95 µM	6.61 µM	3.73 µM	14.3 µM	1.55 µM	3.45 µM	1.27 µM	3.17 µM	1.99 µM	5.61 µM	1.68 µM	3.16 µM	2.65 µM	7.98 µM	3.92 µM	14.7 µM
Cc1ccccc1C(=O)Oc1ccc(O)cc1		> 100 µM		> 100 µM		> 100 µM		> 100 µM		> 100 µM		> 100 µM		> 100 µM		> 100 µM		> 100 µM		> 100 µM
COC(=O)Nc1nc2ccc(C(=O)c3ccc(N(C)C4COC4)cc3)cc2[nH]1	0.36 µM	> 100 µM	0.716 µM	> 100 µM	0.5 µM	> 100 µM	0.708 µM	> 100 µM	0.397 µM	> 100 µM	0.36 µM	> 100 µM	0.375 µM	> 100 µM	0.883 µM	> 100 µM	0.593 µM	> 100 µM	0.435 µM	> 100 µM
COc1cc2c(cc1OC)C(OC)N(C)c1c-2ccc2cc3c(cc12)OCO3 (stereo not given)		4.45 µM		5.73 µM		5.47 µM		15 µM		1.75 µM		7.63 µM		5.68 µM		74.7 µM		5.02 µM		33 µM
COC(=O)NC1(NC(=O)OC)NC(=O)c2cc(OC)c(OC)c(OC)c2N1		> 100 µM		> 100 µM		> 100 µM		> 100 µM		> 100 µM		> 100 µM		> 100 µM		> 100 µM		8.85 µM		> 100 µM
COc1cc(Nc2ncc(F)c(Nc3ccc4c(n3)NC(=O)C(C)(C)O4)n2)cc(OC)c1OC	0.366 µM and 0.527 µM	> 100 µM	> 100 µM	> 100 µM	1.03 µM and 1.27 µM	> 100 µM	4.3 µM	> 10 µM	> 10 µM	> 10 µM	> 100 µM	> 100 µM	> 100 µM	> 100 µM	0.679 µM	> 10 µM	> 100 µM	> 100 µM	0.618 µM	> 10 µM
CCOC(=O)C(=O)Nc1ccc(Cl)cc1C		> 100 µM		> 100 µM		> 100 µM		> 100 µM		> 100 µM		> 100 µM		> 100 µM		> 100 µM		> 100 µM		> 100 µM
O=C(Nc1cccc(Cc2cccc(NC(=O)c3ccccc3)c2)c1)c1ccccc1		> 100 µM		> 100 µM		> 100 µM		> 100 µM		> 100 µM		> 100 µM		> 100 µM		66.3 µM		> 100 µM		47.9 µM
COc1ccc(C[C@@H]2NC[C@@H](O)[C@@H]2OC(C)=O)cc1	3.53 µM		2.19 µM		9 µM		1.55 µM			0.453 µM	2.92 µM		5.34 µM		44.6 µM			0.3 µM	30.3 µM	
Fc1ccc(-c2ncn(C3CCNCC3)c2-c2ccnc(Oc3ccc(F)c(F)c3)n2)cc1	6.71 µM	> 16.2 µM	3.84 µM	7.77 µM	8.97 µM	> 16.2 µM	> 14.6 µM	> 25 µM	5 µM	11.7 µM	4.09 µM	7.56 µM	6.68 µM	> 14.4 µM	6.25 µM	> 25 µM	6.84 µM	14.5 µM	10.6 µM	> 20.6 µM
S=C(Nc1ccc(Cl)cc1)Nc1ccc(-c2nc3ccccc3o2)cc1	15.8 µM	42.9 µM	13.8 µM	26.7 µM	26.3 µM	> 100 µM	19.4 µM	64 µM	14.1 µM	29.7 µM	13.6 µM	26.4 µM	13.6 µM	44.7 µM	11.6 µM	26.1 µM	24.2 µM	51.2 µM	12.3 µM	39.8 µM
O=C(O)c1ccc(S(=O)(=O)Nc2ccc3oc4c(c3c2)C(=O)CCC4)cc1	> 100 µM	> 100 µM	> 100 µM	> 100 µM	> 100 µM	> 100 µM	> 100 µM	> 100 µM	> 100 µM	> 100 µM	> 100 µM	> 100 µM	> 100 µM	> 100 µM	> 100 µM	> 100 µM	> 100 µM	> 100 µM	> 100 µM	> 100 µM
O=S(=O)(SCc1ccccc1)C(c1ccccc1)c1ccccc1		> 100 µM		> 100 µM		> 100 µM		> 100 µM		> 100 µM		> 100 µM		> 100 µM		> 100 µM		> 100 µM		93.8 µM
Cc1nc(-c2ccccc2)cc2c1c(=O)oc1ccccc12		> 100 µM		> 100 µM		> 100 µM		> 100 µM		> 100 µM		> 100 µM		> 100 µM		> 100 µM		> 100 µM		> 100 µM
CC(C)C1CC2C(=O)N(c3ccccc3)C(=O)C2c2[nH]c3ccccc3c21 (stereo not given)		> 100 µM		> 100 µM		> 100 µM		> 100 µM		41.1 µM		14.8 µM		38 µM		80.4 µM		> 100 µM		> 100 µM
CCN1C2=NCCN2S(=O)(=O)c2ccccc21		> 100 µM		> 100 µM		> 100 µM		> 100 µM		> 100 µM		> 100 µM		> 100 µM		> 100 µM		> 100 µM		> 100 µM
OC(COc1ccc(F)cc1)Cn1cnc2c(Cl)ncnc21 (stereo not given)	> 100 µM	> 100 µM	19.3 µM	42.3 µM	> 100 µM	> 100 µM	> 100 µM	> 100 µM	> 100 µM	> 100 µM	> 100 µM	> 100 µM	74 µM	> 100 µM	> 100 µM	> 100 µM	> 100 µM	> 100 µM	19.9 µM	37.6 µM
CN1C(=O)[C@@H](NC(=O)[C@H](CCC(F)(F)F)[C@H](CCC(F)(F)F)C(N)=O)N=C(c2ccccc2)c2ccccc21	> 100 µM	> 100 µM	> 100 µM	> 100 µM	> 100 µM	> 100 µM	68 µM	> 100 µM	> 100 µM	> 100 µM	56.7 µM	> 100 µM	> 100 µM	> 100 µM	49 µM	> 100 µM	> 100 µM	> 100 µM	> 100 µM	> 100 µM
O=C(Cc1nc2ccccc2s1)C(=O)Nc1cccc(Cl)c1		> 100 µM		> 100 µM		> 100 µM		> 100 µM		> 100 µM		> 100 µM		> 100 µM		> 100 µM		> 100 µM		> 100 µM
CN(CC#N)C1CCCC[C@H]1O (stereo not given in full)		> 100 µM		> 100 µM		> 100 µM		> 100 µM		> 100 µM		> 100 µM		> 100 µM		> 100 µM		> 100 µM		> 100 µM
